# Data as given in patent US8134015B2, “Compound inhibiting in vivo phosphorous transport and medicine containing the same” (Kyowa Hakko Kirin Co., Ltd., priority 2003, dated 2012).
# Molecular target: T1, rat NaPi-2b (Rattus norvegicus, UniProt Q9JJ09)
# T1 construct: expressed in transfected cells; host or cells: Xenopus oocytes injected with cRNA
# T1 sequence (Q9JJ09 1-695): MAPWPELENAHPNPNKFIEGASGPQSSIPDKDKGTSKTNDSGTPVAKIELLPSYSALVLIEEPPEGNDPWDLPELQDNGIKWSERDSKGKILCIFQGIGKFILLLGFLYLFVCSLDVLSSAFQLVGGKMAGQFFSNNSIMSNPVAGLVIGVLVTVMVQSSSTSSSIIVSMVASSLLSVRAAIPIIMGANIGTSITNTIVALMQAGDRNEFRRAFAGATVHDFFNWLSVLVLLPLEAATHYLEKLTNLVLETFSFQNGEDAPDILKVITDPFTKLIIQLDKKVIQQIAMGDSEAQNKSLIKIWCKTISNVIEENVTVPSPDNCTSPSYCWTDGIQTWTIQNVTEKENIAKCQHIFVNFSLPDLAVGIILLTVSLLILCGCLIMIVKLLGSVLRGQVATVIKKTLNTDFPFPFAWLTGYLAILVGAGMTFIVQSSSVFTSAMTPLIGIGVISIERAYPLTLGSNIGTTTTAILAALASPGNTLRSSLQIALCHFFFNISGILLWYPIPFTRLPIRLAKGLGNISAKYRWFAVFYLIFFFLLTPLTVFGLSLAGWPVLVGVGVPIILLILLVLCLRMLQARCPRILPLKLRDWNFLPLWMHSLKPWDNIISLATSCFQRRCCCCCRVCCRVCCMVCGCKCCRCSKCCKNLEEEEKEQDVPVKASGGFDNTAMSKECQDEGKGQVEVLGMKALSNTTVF
# Assay: Sodium-dependent phosphate uptake of Xenopus oocytes which expressed NaPi-2b (32P)
# Type: cell-based
# Conditions: Xenopus oocytes expressing rat NaPi-2b, 32P radioactive phosphorus; read-out: IC50 (phosphate uptake inhibitory activity)
# Procedure, shortened: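 Percent inhibition at 300 μM and 100 μM comes from the same inhibition curve of 32P uptake. Assay used oocytes expressing rat NaPi-2b after 2 days of culture.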
row,Compound,IC50 [µM]
1,"COc1cccc(/C=N/NC(=O)c2cc(Br)ccc2NC(=O)c2ccc(CNCCCN(C)c3ccccc3)cc2)c1 [Compound 763, N-[4-Bromo-2-(3-methoxy-benzylidene-hydrazinocarbonyl)-phenyl]-4-{[3-(methyl-phenyl-amino)-propylamino]-methyl}-benzamide]",11.2
2,"CCSCCNCc1ccc(C(=O)Nc2ccc(Br)cc2C(=O)N/N=C/c2ccc(C)c(C)c2)cc1 [Compound 764, N-[4-Bromo-2-(3,4-dimethyl-benzylidene-hydrazinocarbonyl)-phenyl]-4-[(2-ethylsulfanyl-ethylamino)-methyl]-benzamide]",5.92
3,"CCSCCNCc1ccc(C(=O)Nc2ccc(Br)cc2C(=O)N/N=C/c2ccc(C)cc2)cc1 [Compound 765, N-[4-Bromo-2-(4-methyl-benzylidene-hydrazinocarbonyl)-phenyl]-4-[(2-ethylsulfanyl-ethylamino)-methyl]-benzamide]",6.88
4,"CCSCCNCc1ccc(C(=O)Nc2ccc(Br)cc2C(=O)N/N=C/c2cccc(F)c2)cc1 [Compound 768, N-[4-Bromo-2-(3-fluoro-benzylidene-hydrazinocarbonyl)-phenyl]-4-[(2-ethylsulfanyl-ethylamino)-methyl]-benzamide]",10.6
5,"CCSCCNCc1ccc(C(=O)Nc2ccc(Br)cc2C(=O)N/N=C/c2ccc(Cl)c(C(F)(F)F)c2)cc1 [Compound 769, N-[4-Bromo-2-(4-chloro-3-trifluoromethyl-benzylidene-hydrazinocarbonyl)-phenyl]-4-[(2-ethylsulfanyl-ethylamino)-methyl]-benzamide]",4.44
6,"CCSCCNCc1ccc(C(=O)Nc2ccc(Br)cc2C(=O)N/N=C/c2ccc(OC)cc2)cc1 [Compound 770, N-[4-Bromo-2-(4-methoxy-benzylidene-hydrazinocarbonyl)-phenyl]-4-[(2-ethylsulfanyl-ethylamino)-methyl]-benzamide]",16.5

# Same assay, conditions: phosphate uptake, oocytes expressing rat NaPi-2b; 300 μM, determined from inhibition curve
row,Compound,inhibition at 300 µM [%]
1,"Cc1ccc(/C=N/NC(=O)c2cc(Br)ccc2NC(=O)c2ccc(CNCCCN(C)c3ccccc3)cc2)cc1 [Compound 758, N-[4-Bromo-2-(4-methyl-benzylidene-hydrazinocarbonyl)-phenyl]-4-{[3-(methyl-phenyl-amino)-propylamino]-methyl}-benzamide]",58.2
2,"CN(CCCNCc1ccc(C(=O)Nc2ccc(Br)cc2C(=O)N/N=C/c2ccc(F)cc2)cc1)c1ccccc1 [Compound 759, N-[4-Bromo-2-(4-fluoro-benzylidene-hydrazinocarbonyl)-phenyl]-4-{[3-(methyl-phenyl-amino)-propylamino]-methyl}-benzamide]",63.9
3,"CN(CCCNCc1ccc(C(=O)Nc2ccc(Br)cc2C(=O)N/N=C/c2cccc(F)c2)cc1)c1ccccc1 [Compound 760, N-[4-Bromo-2-(3-fluoro-benzylidene-hydrazinocarbonyl)-phenyl]-4-{[3-(methyl-phenyl-amino)-propylamino]-methyl}-benzamide]",73.3
4,"CN(CCCNCc1ccc(C(=O)Nc2ccc(Br)cc2C(=O)N/N=C/c2ccc(Cl)c(C(F)(F)F)c2)cc1)c1ccccc1 [Compound 761, N-[4-Bromo-2-(4-chloro-3-trifluoromethyl-benzylidene-hydrazinocarbonyl)-phenyl]-4-{[3-(methyl-phenyl-amino)-propylamino]-methyl}-benzamide]",46.2
5,"COc1ccc(/C=N/NC(=O)c2cc(Br)ccc2NC(=O)c2ccc(CNCCCN(C)c3ccccc3)cc2)cc1 [Compound 762, N-[4-Bromo-2-(4-methoxy-benzylidene-hydrazinocarbonyl)-phenyl]-4-{[3-(methyl-phenyl-amino)-propylamino]-methyl}-benzamide]",52.1
6,"CCSCCNCc1ccc(C(=O)Nc2ccc(Br)cc2C(=O)N/N=C/c2cccc(C)c2)cc1 [Compound 766, N-[4-Bromo-2-(3-methyl-benzylidene-hydrazinocarbonyl)-phenyl]-4-[(2-ethylsulfanyl-ethylamino)-methyl]-benzamide]",81.9
7,"CCSCCNCc1ccc(C(=O)Nc2ccc(Br)cc2C(=O)N/N=C/c2ccc(F)cc2)cc1 [Compound 767, N-[4-Bromo-2-(4-fluoro-benzylidene-hydrazinocarbonyl)-phenyl]-4-[(2-ethylsulfanyl-ethylamino)-methyl]-benzamide]",81.8
8,"CCSCCNCc1ccc(C(=O)Nc2ccc(Br)cc2C(=O)N/N=C/c2cccc(OC)c2)cc1 [Compound 771, N-[4-Bromo-2-(3-methoxy-benzylidene-hydrazinocarbonyl)-phenyl]-4-[(2-ethylsulfanyl-ethylamino)-methyl]-benzamide]",85.1
9,"Cc1ccc(/C=N/NC(=O)c2cc(Br)ccc2NC(=O)c2ccc(CN3CCN(c4ccccn4)CC3)cc2)cc1C [Compound 772, N-[4-Bromo-2-(3,4-dimethyl-benzylidene-hydrazinocarbonyl)-phenyl]-4-(4-pyridin-2-yl-piperazin-1-ylmethyl)-benzamide]",67.7
10,"Cc1ccc(/C=N/NC(=O)c2cc(Br)ccc2NC(=O)c2ccc(CN3CCN(c4ccccn4)CC3)cc2)cc1 [Compound 773, N-[4-Bromo-2-(4-methyl-benzylidene-hydrazinocarbonyl)-phenyl]-4-(4-pyridin-2-yl-piperazin-1-ylmethyl)-benzamide]",53.9
11,"O=C(Nc1ccc(Br)cc1C(=O)N/N=C/c1ccc(F)cc1)c1ccc(CN2CCN(c3ccccn3)CC2)cc1 [Compound 774, N-[4-Bromo-2-(4-fluoro-benzylidene-hydrazinocarbonyl)-phenyl]-4-(4-pyridin-2-yl-piperazin-1-ylmethyl)-benzamide]",58.9
12,"O=C(Nc1ccc(Br)cc1C(=O)N/N=C/c1cccc(F)c1)c1ccc(CN2CCN(c3ccccn3)CC2)cc1 [Compound 775, N-[4-Bromo-2-(3-fluoro-benzylidene-hydrazinocarbonyl)-phenyl]-4-(4-pyridin-2-yl-piperazin-1-ylmethyl)-benzamide]",44.6
13,"O=C(Nc1ccc(Br)cc1C(=O)N/N=C/c1ccc(Cl)c(C(F)(F)F)c1)c1ccc(CN2CCN(c3ccccn3)CC2)cc1 [Compound 776, N-[4-Bromo-2-(4-chloro-3-trifluoromethyl-benzylidene-hydrazinocarbonyl)-phenyl]-4-(4-pyridin-2-yl-piperazin-1-ylmethyl)-benzamide]",49.2
14,"COc1ccc(/C=N/NC(=O)c2cc(Br)ccc2NC(=O)c2ccc(CN3CCN(c4ccccn4)CC3)cc2)cc1 [Compound 777, N-[4-Bromo-2-(4-methoxy-benzylidene-hydrazinocarbonyl)-phenyl]-4-(4-pyridin-2-yl-piperazin-1-ylmethyl)-benzamide]",34.2
15,"COc1cccc(/C=N/NC(=O)c2cc(Br)ccc2NC(=O)c2ccc(CN3CCN(c4ccccn4)CC3)cc2)c1 [Compound 778, N-[4-Bromo-2-(3-methoxy-benzylidene-hydrazinocarbonyl)-phenyl]-4-(4-pyridin-2-yl-piperazin-1-ylmethyl)-benzamide]",39.1
16,"CC(O)CN(Cc1cccc(C(=O)Nc2sccc2C(=O)N/N=C/c2ccc(Cl)c(C(F)(F)F)c2)c1)CC(C)O (stereo not drawn) [Compound 779, 3-{[Bis-(2-hydroxy-propyl)-amino]-methyl}-N-[3-(4-chloro-3-trifluoromethyl-benzylidene-hydrazinocarbonyl)-thiophen-2-yl]-benzamide]",51.6
17,"COc1ccc(/C=N/NC(=O)c2ccsc2NC(=O)c2cccc(CN(CC(C)O)CC(C)O)c2)cc1 (stereo not drawn) [Compound 780, 3-{[Bis-(2-hydroxy-propyl)-amino]-methyl}-N-[3-(4-methoxy-benzylidene-hydrazinocarbonyl)-thiophen-2-yl]-benzamide]",47.7
18,"Cc1ccc(/C=N/NC(=O)c2c(C)csc2NC(=O)c2cccc(CSCCS(=O)(=O)O)c2)cc1C [Compound 781, 2-{3-[3-(3,4-Dimethyl-benzylidene-hydrazinocarbonyl)-4-methyl-thiophen-2-ylcarbamoyl]-benzylsulfanyl}-ethanesulfonic acid]",51.2
19,"Cc1ccc(/C=N/NC(=O)c2c(C)csc2NC(=O)c2cccc(CSCCS(=O)(=O)O)c2)cc1 [Compound 782, 2-{3-[4-Methyl-3-(4-methyl-benzylidene-hydrazinocarbonyl)-thiophen-2-ylcarbamoyl]-benzylsulfanyl}-ethanesulfonic acid]",86.8
20,"Cc1csc(NC(=O)c2cccc(CSCCS(=O)(=O)O)c2)c1C(=O)N/N=C/c1ccc(F)cc1 [Compound 783, 2-{3-[3-(4-Fluoro-benzylidene-hydrazinocarbonyl)-4-methyl-thiophen-2-ylcarbamoyl]-benzylsulfanyl}-ethanesulfonic acid]",88.8
21,"Cc1csc(NC(=O)c2cccc(CSCCS(=O)(=O)O)c2)c1C(=O)N/N=C/c1ccc(Cl)c(C(F)(F)F)c1 [Compound 784, 2-{3-[3-(4-Chloro-3-trifluoromethyl-benzylidene-hydrazinocarbonyl)-4-methyl-thiophen-2-ylcarbamoyl]-benzylsulfanyl}-ethanesulfonic acid]",88.5
